# Measured values from patent publication US20250059184A1 (priority 2021, published 2025).
# Legend:
# 5-HT2A [1] = target: T1, 5-HT2A (Homo sapiens, UniProt P28223); assay: Serotonin 5-HT2A in vitro radioligand binding competition assay ([3H]-DOI); parameters: purchased Epics Therapeutics S.A. (Belgium) FAST-0505B; details: [3H]-DOI radiotracer, membrane extracts
# Experimental: Serotonin 5-HT2A In Vitro Radioligand Binding Competition Assay. The 5-HT2A radioligand binding competition assay was performed at Epics Therapeutics S.A. (Belgium, FAST-0505B) using conventional methods. Briefly, competition binding was performed in duplicate in the wells of a 96 well plate (Master Block, Greiner, 786201) containing binding buffer (optimized for each receptor), membrane extracts (amount of protein/well optimized for each receptor), radiotracer [^3H]-DOI (final concentration optimized for each receptor) and test compound. Nonspecific binding was determined by co-incubation with 200-fold excess of cold competitor. The samples were incubated in a final volume of 0.1 ml at a temperature and for a duration optimized for each receptor and then filtered over filter plates. Filters were washed six times with 0.5 ml of ice-cold washing buffer (optimized for each receptor) and 50 μl of Microscint 20 (Packard) were added in each well. The plates were incubated 15 min on an orbital shaker and then counted with a TopCount™ for 1 min/well.
# 5-HT2A [2] = target: T1, 5-HT2A; assay: Serotonin 5-HT2A in vitro cellular IPOne agonism assay (HTRF); assay type: cell-based; parameters: host or cells: CHO-K1; details: CHO-K1 cells, agonist mode
# Experimental: (§1) Serotonin 5-HT2A In Vitro Cellular IPOne Agonism Assay. The 5-HT2A IPOne HTRF assay was performed at Epics Therapeutics S.A. (Belgium, FAST-0505I) using conventional methods. Briefly, CHO-K1 cells expressing human recombinant 5-HT2A receptor grown to mid-log phase in culture media without antibiotics were detached with PBS-EDTA, centrifuged, and resuspended in medium without antibiotics buffer. 20,000 cells were distributed in a 96 well plate and incubated overnight at 37° C. with 5% Co2.
# For agonist testing, the medium was removed and 20 μl of assay buffer plus 20 μl of test compound or reference agonist were added in each well. The plate was incubated for 60 min. at 37° C. with 5% CO2.
# (§2) After addition of the lysis buffer containing IP1-d2 and anti-IP1 cryptate detection reagents, plates were incubated 1-hour at room temperature, and fluorescence ratios were measured according to the manufacturer specification, with the HTRF kit.
# 5-HT2A [3] = target: T1, 5-HT2A; assay: Serotonin 5-HT2A in vitro cellular IPOne antagonism assay (HTRF); assay type: cell-based; parameters: host or cells: CHO-K1; details: CHO-K1 cells, reference agonist α-Me-5HT; read-out: 5-HT2A IPOne Antagonist Activity
# Experimental: as §1, with “Antagonism” for “Agonism”, “FAST-O0505) in antagonism mode” for “FAST-0505I)”
# For antagonist testing, a reference agonist α-Me-5HT was added and fluorescence signal monitored for several minutes, followed by addition of 20 μl of assay buffer plus 20 μl of test compound or reference antagonist ketanserin, in each well. The plate was incubated for 60 min. at 37° C. with 5% CO2.
# as §2
# T1 sequence (P28223 whole entry): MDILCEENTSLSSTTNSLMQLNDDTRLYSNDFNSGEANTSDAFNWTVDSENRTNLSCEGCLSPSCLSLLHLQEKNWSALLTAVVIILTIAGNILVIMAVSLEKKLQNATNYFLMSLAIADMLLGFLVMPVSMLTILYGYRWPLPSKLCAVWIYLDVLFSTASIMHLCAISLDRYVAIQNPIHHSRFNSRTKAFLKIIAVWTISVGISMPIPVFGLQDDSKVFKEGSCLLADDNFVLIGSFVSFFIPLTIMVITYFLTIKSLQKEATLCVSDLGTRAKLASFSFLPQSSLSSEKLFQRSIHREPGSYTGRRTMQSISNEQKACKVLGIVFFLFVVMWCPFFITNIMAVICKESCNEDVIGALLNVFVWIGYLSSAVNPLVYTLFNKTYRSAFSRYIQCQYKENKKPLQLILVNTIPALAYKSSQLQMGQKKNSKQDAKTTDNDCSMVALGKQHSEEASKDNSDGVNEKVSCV
Compound,IC50 (5-HT2A [1]) [µM],EC50 (5-HT2A [2]) [µM],IC50 (5-HT2A [3]) [µM]
"CC(N)Cc1cnn2ccccc12 (stereo not drawn) [Compound 48, 1-(pyrazolo[1,5-a]pyridin-3-yl)propan-2-amine]",> 10,1 to 10,–
"Cc1nc(CC(C)N(C)C)n2ccc(F)cc12 (stereo not drawn) [Compound 18, 1-(7-fluoro-1-methylimidazo [1,5-a]pyridin-3-yl)-N,N-dimethylpropan-2-amine]",1 to 10,> 10,–
"Cc1cccc2cnc(CC(C)N)n12 (stereo not drawn) [Compound 7, 1-(5-methylimidazo[1,5-a]pyridin-3-yl)propan-2-amine]",1 to 10,1 to 10,–
"CN1CCCC1Cc1ncc2ccccn12 (stereo not drawn) [Compound 31, 3-((1-Methylpyrrolidin-2-yl)methyl)imidazo[1,5-a]pyridine]",1 to 10,> 10,0.101 to 1
"CC(N)Cc1ncn2ccccc12 (stereo not drawn) [Compound 40, 1-(imidazo[1,5-a]pyridin-1-yl)propan-2-amine]",1 to 10,> 10,–
"CN(C)CCc1cnn2ccccc12 [Compound 49, N,N-dimethyl-2-(pyrazolo[1,5-a]pyridin-3-yl)ethan-1-amine]",> 10,> 10,–
"Cc1nc(CCN)c2ccccn12 [Compound 41, 2-(3-methylimidazo[1,5-a]pyridin-1-yl)ethan-1-amine]",> 10,> 10,–
"Cc1ccc2cnc(CC(C)N(C)C)n2c1 (stereo not drawn) [Compound 23, N,N-dimethyl-1-(6-methylimidazo [1,5-a]pyridin-3-yl)propan-2-amine]",> 10,> 10,–
"CC(Cc1ncn2ccccc12)N(C)C (stereo not drawn) [Compound 44, 1-(imidazo [1,5-a]pyridin-1-yl)-N,N-dimethylpropan-2-amine]",1 to 10,> 10,0.101 to 1
"CN1CCC(c2ncc3ccccn23)C1 (stereo not drawn) [Compound 32, 3-(1-methylpyrrolidin-3-yl)imidazo[1,5-a]pyridine]",0.101 to 1,> 10,1 to 10
"Cc1nc(CC(C)N(C)C)c2ccc(F)cn12 (stereo not drawn) [Compound 46, 1-(6-fluoro-3-methylimidazo [1,5-a]pyridin-1-yl)-N,N-dimethylpropan-2-amine]",1 to 10,> 10,–
"CC(Cc1cnc2cc(F)ccn12)N(C)C (stereo not drawn) [Compound 38, 1-(7-Fluoroimidazo[1,2-a]pyridin-3-yl)-N,N-dimethylpropan-2-amine]",> 10,> 10,–
"CC(Cc1cnn2ccccc12)N(C)C (stereo not drawn) [Compound 50, N,N-dimethyl-1-(pyrazolo[1,5-a]pyridin-3-yl)propan-2-amine]",> 10,> 10,–
"Cc1cccc2cnc(CC(C)N(C)C)n12 (stereo not drawn) [Compound 20, N,N-dimethyl-1-(5-methylimidazo [1,5-a]pyridin-3-yl)propan-2-amine]",> 10,> 10,–
"NCCc1ncc2ccccn12 [Compound 1, 2-(imidazo[1,5-a]pyridin-3-yl)ethan-1-amine]",1 to 10,> 10,–
"c1ccn2c(CC3CCCN3)ncc2c1 (stereo not drawn) [Compound 13, 3-(Pyrrolidin-2-ylmethyl)imidazo[1,5-a]pyridine]",1 to 10,> 10,1 to 10
"CN(C)CCc1ncn2ccccc12 [Compound 43, 2-(imidazo [1,5-a]pyridin-1-yl)-N,N-dimethylethan-1-amine]",1 to 10,> 10,0.101 to 1
"COc1ccn2c(CC(C)N)cnc2c1 (stereo not drawn) [Compound 34, 1-(7-methoxyimidazo[1,2-a]pyridin-3-yl)propan-2-amine]",> 10,> 10,–
"CC(N)Cc1cnc2cc(F)ccn12 (stereo not drawn) [Compound 35, 1-(7-Fluoroimidazo[1,2-a]pyridin-3-yl)propan-2-amine]",> 10,> 10,–
"Cc1nc(CCN(C)C)c2ccccn12 [Compound 45, N,N-dimethyl-2-(3-methylimidazo [1,5-a]pyridin-1-yl)ethan-1-amine]",> 10,> 10,–

Compound,IC50 (5-HT2A [1]) [µM],EC50 (5-HT2A [2]) [µM],IC50 (5-HT2A [3]) [µM]
"Cc1nc(CC(C)N)n2ccccc12 (stereo not drawn) [Compound 11, 1-(1-methylimidazo[1,5-a]pyridin-3-yl)propan-2-amine]",1 to 10,1 to 10,–
"Cc1ccn2c(CC(C)N)ncc2c1 (stereo not drawn) [Compound 9, 1-(7-methylimidazo[1,5-a]pyridin-3-yl)propan-2-amine]",1 to 10,1 to 10,> 10
"Cc1nc(CC(C)N(C)C)n2ccccc12 (stereo not drawn) [Compound 24, N,N-dimethyl-1-(1-methylimidazo [1,5-a]pyridin-3-yl)propan-2-amine]",> 10,> 10,–
"Cc1nc(CC(C)N)n2ccc(F)cc12 (stereo not drawn) [Compound 5, 1-(7-fluoro-1-methylimidazo [1,5-a]pyridin-3-yl)propan-2-amine]",1 to 10,1 to 10,–
"CC(N)Cc1ncc2cc(F)ccn12 (stereo not drawn) [Compound 4, 1-(7-fluoroimidazo[1,5-a]pyridin-3-yl)propan-2-amine]",0.101 to 1,> 10,1 to 10
"COc1ccn2c(CC(C)N)ncc2c1 (stereo not drawn) [Compound 3, 1-(7-methoxyimidazo[1,5-a]pyridin-3-yl)propan-2-amine]",1 to 10,> 10,–
"COc1ccn2c(CC(C)N(C)C)cnc2c1 (stereo not drawn) [Compound 37, 1-(7-Methoxyimidazo[1,2-a]pyridin-3-yl)-N,N-dimethylpropan-2-amine]",> 10,> 10,–
"CC(N)Cc1ncc2ccccn12 (stereo not drawn) [Compound 2, 1-(imidazo [1,5-a]pyridin-3-yl)propan-2-amine]",1 to 10,0.101 to 1,–
"NCCc1ncn2ccccc12 [Compound 39, 2-(Imidazo[1,5-a]pyridin-1-yl)ethan-1-amine]",1 to 10,1 to 10,–
"CCN(CC)C(C)Cc1ncc2ccccn12 (stereo not drawn) [Compound 25, N,N-diethyl-1-(imidazo[1,5-a]pyridin-3-yl)propan-2-amine]",1 to 10,> 10,–
"C[C@@H](Cc1ncc2ccccn12)N(C)C [Compound 29, (S)-1-(imidazo[1,5-a]pyridin-3-yl)-N,N-dimethylpropan-2-amine]",1 to 10,> 10,–
"NCCc1cnn2ccccc12 [Compound 47, 2-(Pyrazolo[1,5-a]pyridin-3-yl)ethan-1-amine]",> 10,> 10,–
"Cc1ccn2c(CC(C)N(C)C)ncc2c1 (stereo not drawn) [Compound 22, N,N-dimethyl-1-(7-methylimidazo [1,5-a]pyridin-3-yl)propan-2-amine]",> 10,> 10,–
"Cc1cccn2c(CC(C)N(C)C)ncc12 (stereo not drawn) [Compound 21, N,N-dimethyl-1-(8-methylimidazo [1,5-a]pyridin-3-yl)propan-2-amine]",1 to 10,> 10,–
"Cc1nc(CC(C)N)c2ccc(F)cn12 (stereo not drawn) [Compound 42, 1-(6-fluoro-3-methylimidazo[1,5-a]pyridin-1-yl)propan-2-amine]",1 to 10,1 to 10,–
"CC(N)Cc1cnc2ccccn12 (stereo not drawn) [Compound 33, 1-(imidazo[1,2-a]pyridin-3-yl)propan-2-amine]",> 10,> 10,–
"COc1ccn2c(CC(C)N(C)C)ncc2c1 (stereo not drawn) [Compound 16, 1-(7-methoxyimidazo[1,5-a]pyridin-3-yl)-N,N-dimethylpropan-2-amine]",> 10,> 10,–
"Cc1ccc2cnc(CC(C)N)n2c1 (stereo not drawn) [Compound 10, 1-(6-methylimidazo[1,5-a]pyridin-3-yl)propan-2-amine]",1 to 10,1 to 10,–
"CC(Cc1ncc2ccccn12)N1CCOCC1 (stereo not drawn) [Compound 28, 4-(1-(Imidazo[1,5-a]pyridin-3-yl)propan-2-yl)morpholine]",1 to 10,> 10,–
"CC(Cc1cnc2ccccn12)N(C)C (stereo not drawn) [Compound 36, 1-(imidazo[1,2-a]pyridin-3-yl)-N,N-dimethylpropan-2-amine]",> 10,> 10,–
